Test results taken from paper PMC7058016, “Photoinduced damage of AsLOV2 domain is accompanied by increased singlet oxygen production due to flavin dissociation” (Scientific Reports, 2020).

Molecular target: T1, AsLOV2 (Avena sativa, UniProt O49003, C450A)
T1 construct: gene NPH1-1; LOV2 domain, residues 404-547, N-terminal His10-tag kept (first 31 residues not native), E. coli BL21(DE3)
Assay: co-purified holoprotein; absorption and fluorescence spectra, FMN triplet lifetime, […] kDa filtration
Format: binding
Conditions: 20 mM Tris-HCl pH 7.8, room temperature; before irradiation; no covalent adduct possible

T1 sequence (O49003 entry or part of it C450A): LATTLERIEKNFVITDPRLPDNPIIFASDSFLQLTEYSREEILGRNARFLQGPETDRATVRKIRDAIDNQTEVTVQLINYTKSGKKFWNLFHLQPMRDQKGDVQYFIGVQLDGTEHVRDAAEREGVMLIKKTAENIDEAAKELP

Cc1cc2nc3c(=O)[nH]c(=O)nc-3n(C[C@H](O)[C@H](O)[C@H](O)COP(=O)(O)O)c2cc1C [flavin mononucleotide]
co-purified holoprotein; absorption and fluorescence spectra, FMN triplet lifeti: before irradiation there was no free FMN detected in the filtrate
